Here are results for 73 molecules from PubChem BioAssay AID179 (DTP/NCI, 2004).

Active and inactive are the calls of the source.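 The calls were made as follows: active = compounds giving half or more protection of infected cells from virus-caused growth loss, again on retest; inactive = the rest.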

This test concerns CEM cells HIV-1 protection, formazan growth assay. The test is described as follows: NCI AIDS Antiviral Assay. Particulars: for IC50: measured here: growth of uninfected CEM cells. In short, it runs like this:
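CEM (human) cells, HIV-1 infected vs uninfected, 5-point dosing, formazan growth read-out. Retest threshold 50% protection.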

Turning to `CC1=NN(c2ccccc2)C(=O)C1N=Nc1ccc(S(=O)(=O)Nc2nccc(C)n2)cc1` (configuration not stated), the result was inactive.

A word on the EC50: it is the concentration that produces a half-maximal response. In general, IC50 refers to the concentration that gives 50% inhibition. A lower IC50 goes with inhibition by little substance. In the case of `Cc1cccc2c1Oc1ccccc1C2NC(=O)CCN(C)C` (configuration not stated), the EC50 is above 200 µM and the IC50 was found to be 38 µM.

As to `O=C(O)CCC(=O)NCCOC(=O)CCC(=O)O`, the EC50 is above 955 µM and the IC50 was above 955 µM.

Turning to `O=C(CCc1ccc(O)c(O)c1)NCCc1cc(O)cc(O)c1`, the outcome was inactive.

Consider `C=CC[C@@]1(C)CCCCCCCCC[C@@](C)(CC=C)C1=O`, for which the EC50 was above 200 µM and the IC50 worked out at 115 µM.

Take `O=C1C=C(C(O)CCO)C(=O)c2c(O)ccc(O)c21` (configuration not stated): the result was inactive.

Consider `COC(=O)C(Cc1nc2ccccc2[nH]c1=O)/C(=N\NC(C)(C)C)C(=O)Nc1c(C)cc(Br)cc1C` (configuration not stated), for which the EC50 was above 64.6 µM and the IC50 was 47.9 µM.

Regarding `CCCN1CCC(=O)N(CCC(F)(F)C(F)(F)C(F)(F)C(F)(F)C(F)(F)C(F)(F)F)C1=S`, the EC50 is above 50.1 µM and the IC50 is above 50.1 µM.

As for `COC1=C(C)C(=O)C(=O)c2ccccc21`, the outcome was inactive.

For the molecule `Oc1c(CN2CCCCC2)ccc2ccccc12`, the EC50 was above 200 µM and the IC50 was 186 µM.

Consider `CCN(CC)C(=O)C(C)n1cc(C)c(=O)[nH]c1=O` (configuration not stated), for which the EC50 was above 977 µM and the IC50 is above 977 µM.

As to `CN(C)CC1CCCC/C1=N/OC(=O)c1ccc(Cl)c(Cl)c1` (configuration not stated), the result was inactive.

`O=C(CCCC1Cc2ccccc2C1=O)c1ccccc1` (configuration not stated): the EC50 is above 200 µM and the IC50 worked out at 91.2 µM.

In the case of `COc1cc(Nc2nc3ccc(C(F)(F)F)cc3nc2-c2ccccc2)cc(OC)c1OC`, the EC50 was above 20.9 µM and the IC50 is above 20.9 µM.

As for `C=C1OC(OC)CC(N)C1O` (configuration not stated), the outcome was inactive.

As to `CC(=O)Oc1c(Cl)cc(C(=CCC[C@H]2CC[C@@]3(C)[C@@H](CC[C@@H]4[C@@H]3CC[C@]3(C)[C@@H]([C@H](C)CCCC(C)C)CC[C@@H]43)C2)c2cc(Cl)c(OC(C)=O)c(C(=O)O)c2)cc1C(=O)O`, the EC50 is 162 µM and the IC50 stood at 174 µM.

Regarding `Nc1nc(N)c2ncn(CCOC(c3ccccc3)P(=O)(O)O)c2n1` (configuration not stated), the EC50 was above 200 µM and the IC50 was above 200 µM.

`C[C@H](NS(=O)(=O)c1ccc(NC(=O)c2ccccc2)cc1)C(=O)O`: the result was inactive.

With `CCC(C)C1C(=O)ON=C1N` (configuration not stated), the EC50 is above 200 µM and the IC50 is above 200 µM.

In the case of `S=C1NCCNC(=S)SSC(=S)SS1`, the EC50 is above 2.34 µM and the IC50 is above 2.34 µM.

As for `O=c1nc2n(cc1/C=C\Br)C1CC(O)C(CO2)O1` (configuration not stated), the result was inactive.

For the molecule `NNC(=O)CC(=O)N(C(=O)/C=C/c1ccccc1)c1ccc(Cl)cc1`, the EC50 was above 200 µM and the IC50 was above 200 µM.

Take `O=c1cc(N2CCNCC2)nc2ccccn12`: the EC50 is above 200 µM and the IC50 is above 200 µM.

Take `NCCC1(N)CCNCC1`: the outcome was inactive.

On to `COc1cccc(-c2nccc3c(OCc4ccccc4)c(OC)c(OC)cc23)c1`, for which the outcome was inactive.

For the molecule `COC1=C(C)C(=O)C2=C(C1=O)C(CO)N1C(C#N)C3CC4C(C1C2N1CCOC41)N3C` (configuration not stated), the EC50 was above 1.17 µM and the IC50 was determined as 0.00575 µM.

Regarding `S=C(Nc1ccccc1)Nc1ccccc1S`, the EC50 is above 200 µM and the IC50 was found to be 112 µM.

Take `N.N.N.N.N.[Co+3].[I-].[N-]=[N+]=[N-]`: the result was inactive.

As to `CC1CC[C@]2(C(=O)O)CCC3(C)C(=C2[C@H]1C)C=CC1[C@@]2(C)CC[C@H](O)C(C)(C)C2CC[C@]13C` (some centres not stated), the EC50 is above 100 µM and the IC50 was above 100 µM.

Turning to `COC(=O)CSc1cc(Cl)c(C)cc1S(=O)(=O)Nc1n[nH]c(N)n1`, the EC50 is above 200 µM and the IC50 was above 200 µM.

`COc1ccccc1NC(=O)C(CC(C(=O)Nc1ccccc1OC)/C(C)=N/Nc1ccc([N+](=O)[O-])cc1[N+](=O)[O-])/C(C)=N/Nc1ccc([N+](=O)[O-])cc1[N+](=O)[O-]` (configuration not stated): the EC50 is above 9.12 µM and the IC50 was above 9.12 µM.

As to `N[C@@H](C[S-])C(=O)O.O=[N+]([O-])O.[Ag+]`, the EC50 is above 200 µM and the IC50 was 126 µM.

Turning to `COc1ccc(C2CC(c3ccccc3)=Nc3ccccc3S2)cc1` (configuration not stated), the EC50 is above 51.3 µM and the IC50 turned out to be 27.5 µM.

Take `CN(c1ccccc1)S(=O)(=O)c1cccc([N+](=O)[O-])c1`: the EC50 is 50.1 µM and the IC50 was determined as 105 µM.

Regarding `O=C(NC1CCCCCC1)C1C(=O)N(C2CCCCCC2)C(=O)/C1=N\O` (configuration not stated), the outcome was inactive.

`Cc1cccc(C)c1NC(=S)NC=C(C(N)=O)C(N)=O`: the EC50 is above 200 µM and the IC50 was above 200 µM.

For `CC(=O)OCCOCn1c2c(c(=O)[nH]c1=O)CCC2`, the EC50 was above 200 µM and the IC50 is above 200 µM.

With `Cc1cc2nc(C=C(C(F)(F)F)C(F)(F)F)sc2cc1C`, the EC50 was above 20 µM and the IC50 stood at 3.63 µM.

As for `COCCOCc1nc(C#N)c(N)o1`, the outcome was inactive.

For the molecule `Cc1nc2ccc(S(=O)(=O)Nc3ccc(Cl)cc3)cc2c(=O)n1NC(=O)CNc1ccc(Cl)cc1`, the EC50 is above 200 µM and the IC50 is above 200 µM.

Turning to `N#C/C(=C\c1ccc2ccccc2c1)C(=O)c1ccccc1`, the EC50 was above 7.08 µM and the IC50 was above 7.08 µM.

For `CCC12CCCN(Cc3ccccc3)C1c1c(n(C)c3ccccc13)CC2` (configuration not stated), the EC50 is above 66.1 µM and the IC50 is above 66.1 µM.

For `CC(=O)OC1O[C@@H](C(C)(C)O)CC[C@@H]1[C@H]1CC[C@@]2(C)C3=C(CC[C@]12C)[C@@]1(C)C[C@@H](OC(=O)CC(C)(O)CC(=O)O)[C@H](OC(C)=O)C(C)(C)C1CC3` (some centres not stated), the EC50 is above 200 µM and the IC50 is 105 µM.

Consider `CC(C)CCC[C@@H](C)C1CCC2[C@@H]3CCC4C[C@@H](CC/C=C/CC[C@H]5CC[C@@]6(C)C(CC[C@@H]7C6CC[C@@]6(C)C7CCC6[C@H](C)CCCC(C)C)C5)CC[C@]4(C)C3CC[C@@]21C` (some centres not stated), for which the EC50 is above 9.55 µM and the IC50 is above 9.55 µM.

As for `CC1(C)O[C@@H](C[C@]2(C#N)C[C@H](CCl)OC(C)(C)O2)C[C@@H](C#N)O1`, the result was inactive and the IC50 is above 200 µM.

As to `c1c[nH]c(Cc2ncc(Cc3cnc[nH]3)[nH]2)n1`, the result was inactive.

Regarding `C[N+](C)(C)CC1CCCC/C1=N\OC(=O)c1ccccc1` (configuration not stated), the EC50 is above 603 µM and the IC50 amounted to 575 µM.

Turning to `O=C1CC(c2ccccc2)NCN1` (configuration not stated), the outcome was inactive.

As for `O=C(NCCS(=O)(=O)N1C(=O)C2CCCN2C(=O)[C@@H]1Cc1ccccc1)OCc1ccccc1` (some centres not stated), the EC50 is above 100 µM and the IC50 stood at 53.7 µM.

Consider `Cc1ccccc1Nc1nc2c(s1)C(=O)c1ccccc1C2=O`, for which the outcome was inactive.

For `CCN(CC)CCN(C(=Nc1ccccc1)N1CCOCC1)c1ccccc1`, the EC50 was above 200 µM and the IC50 was found to be 41.7 µM.

With `CCN(CC)CCOC(=O)Cc1cccc2c(=O)cc(-c3ccccc3)oc12`, the outcome was inactive.

Consider `N#CC(N)(C(=O)C(=O)NCCCNC(=O)C(=O)C(N)(C#N)c1ccc(Cl)cc1)c1ccc(Cl)cc1` (configuration not stated), for which the EC50 is above 174 µM and the IC50 was above 174 µM.

As for `CCOC(OCC)C(CC)[Se]c1ccccc1` (configuration not stated), the EC50 is above 87.1 µM and the IC50 was above 87.1 µM.

Regarding `Cc1c(C)c(C)n(C2OC(CO)C(O)C(O)C2O)c(=S)c1C#N` (configuration not stated), the EC50 was above 100 µM and the IC50 is above 100 µM.

Turning to `Cc1cc(O)c2c3c1C(=O)Oc1c(CO)c(O)c(C(=O)O)c(c1O3)C=NN=Cc1c3c(c(CO)c(O)c1C(=O)O)OC(=O)c1c(C)cc(O)c(c1O3)C=NN=C2`, the outcome was inactive.

In the case of `O=C1C=CC(=O)N1n1c(-c2ccccc2)n[nH]c1=O`, the EC50 is 95.5 µM and the IC50 stood at 955 µM.

For the molecule `CC12CCC3c4cc(Br)c(O)c(Br)c4CCC3C1CCC2O` (configuration not stated), the EC50 was above 200 µM and the IC50 was 6.76 µM.

Consider `NC(CCSSCCC(N)P(=O)(O)O)P(=O)(O)O` (configuration not stated), for which the EC50 is above 200 µM and the IC50 is above 200 µM.

On to `COc1c2c(nc3ccccc13)-c1cc3c(c(=O)n1C2)COC(=O)C3(O)CC(=O)N1CCOCC1` (configuration not stated), for which the EC50 was above 10 µM and the IC50 came out at 0.741 µM.

With `CCOC(=O)NC(Nc1ccc(F)cc1F)(C(F)(F)F)C(F)(F)F`, the EC50 is above 200 µM and the IC50 is above 200 µM.

For the molecule `CCC(=O)O[C@H](C)CC1SCCCS1`, the EC50 is above 214 µM and the IC50 is above 214 µM.

For `CC1(C)CC(=O)C(C=NC(=O)c2ccncc2)=C(O)C1`, the EC50 was 100 µM and the IC50 is above 200 µM.

Turning to `Cc1ccc(-c2sc(-c3ccc(C)cc3)c3c2C2CCC3C2)cc1`, the EC50 was above 200 µM and the IC50 is above 200 µM.

Take `CCc1c(C)c(SC)n(C)c(=O)c1C#N`: the EC50 was above 200 µM and the IC50 came out at 69.2 µM.

Consider `Cc1ccc(NC(=O)CC/C(CC(=O)C(C)(C)C)=N\NC(=O)C[n+]2ccccc2)cc1C`, for which the EC50 is above 75.9 µM and the IC50 was above 75.9 µM.

Regarding `CC1=CC2c3c(O)cc(-c4cc5ccc(O)cc5o4)cc3OC3(c4ccc(O)cc4O)Oc4cc(O)ccc4[C@H](C1)C23` (some centres not stated), the EC50 was above 22.9 µM and the IC50 was 2.04 µM.

In the case of `COC1=NC2=NC(OC)=NC3=C(Br)C=C(Br)C(=N1)N23`, the EC50 is above 9.77 µM and the IC50 is above 9.77 µM.

For the molecule `CCCC(C)(O)CCC(O)(CCC)CCC` (configuration not stated), the EC50 was above 200 µM and the IC50 was above 200 µM.

With `Cc1ccc(C)c(N2C(=O)C(=O)C(c3nc4ccccc4s3)C(=O)C2=O)c1`, the result was inactive.

`CNS(=O)(=O)NNS(=O)(=O)c1ccc(OC)cc1`: the EC50 is above 617 µM and the IC50 was determined as 324 µM.

In the case of `NC(CSS(=O)(=O)O)=NCCCc1nc2ccccc2[nH]1`, the EC50 is above 200 µM and the IC50 was 45.7 µM.

On to `O=C(NNc1nc2ccccc2n2cccc12)c1cnccn1`, for which the EC50 is above 2 µM and the IC50 worked out at 0.417 µM.
